These results are taken from paper PMC4382465 (The Journal of antibiotics, 2014).

In brackets after ≈: the same amount, converted by molar mass.

Assay [1] has as its system M. tuberculosis H37Rv RFPr. Put plainly: MIC, broth dilution. Format: cell-based. Conditions: Mycobacterium tuberculosis.
Assay [2] relates to M. tuberculosis H37Rv INHr. Description: MIC, broth dilution. The class given is cell-based. To be noted: Mycobacterium tuberculosis. On the technique in general: In broth dilution the organism is exposed to a series of concentrations in liquid medium.

The term MIC denotes the lowest concentration that inhibits growth of the organism. Compound `CO[C@H]1/C=C/O[C@@]2(C)Oc3c(C)c(O)c4c(O)c(c(/C=N/N5CCN(C)CC5)c(O)c4c3C2=O)NC(=O)/C(C)=C\C=C\[C@H](C)[C@H](O)[C@@H](C)[C@@H](O)[C@@H](C)[C@H](OC(C)=O)[C@@H]1C` [Rifampicin (RFP), Rifampicin] yielded an MIC in assay [1] of more than 4 mg/L. With `COC1C(C(OC2OC(C(=O)NC3CCCCNC3=O)=CC(O)C2O)C(N)=O)OC(n2ccc(=O)[nH]c2=O)C1OC` (stereo not drawn) [UT-01320 (3), 6-{Carbamoyl-[5-(2,4-dioxo-3,4-dihydro-2H-pyrimidin-1-yl)-3,4-dimethoxy-tetrahydro-furan-2-yl]-methoxy}-4,5-dihydroxy-5,6-dihydro-4H-pyran-2-carboxylic acid (2-oxo-azepan-3-yl)-amide], the results for the MIC in assay [2] and in assay [1] were 2.5 mg/L (≈ 4.28 µM) and 2.45 mg/L (≈ 4.2 µM), respectively.
